ChEMBL document CHEMBL4800729 (2021)

Columns and labels:
[1] = molecular target: Monoamine oxidase A (MAO-A) (Homo sapiens, UniProt P21397); test: Inhibition of Monoamine Oxidase MAO-A at compound concentration of 10.0 uM in the Eurofins-Panlabs enzyme assay (Eurofins_assay_140010); design: substrate with concentration 50 uM Kynuramine, incubation time 60 min, incubation temperature 37 C; conditions: recombinant human MAO-A expressed in insect Hi5 cells, probe Kynuramine (50 uM), compound concentration 10 uM
[2] = molecular target: Tyrosine-protein kinase ABL1 (Homo sapiens) (UniProt P00519); test: Abl(h) Millipore kinase panel; conditions: Compound concentration 1.0 uM
Sequence of Tyrosine-protein kinase ABL1 (Homo sapiens) (P00519 whole entry): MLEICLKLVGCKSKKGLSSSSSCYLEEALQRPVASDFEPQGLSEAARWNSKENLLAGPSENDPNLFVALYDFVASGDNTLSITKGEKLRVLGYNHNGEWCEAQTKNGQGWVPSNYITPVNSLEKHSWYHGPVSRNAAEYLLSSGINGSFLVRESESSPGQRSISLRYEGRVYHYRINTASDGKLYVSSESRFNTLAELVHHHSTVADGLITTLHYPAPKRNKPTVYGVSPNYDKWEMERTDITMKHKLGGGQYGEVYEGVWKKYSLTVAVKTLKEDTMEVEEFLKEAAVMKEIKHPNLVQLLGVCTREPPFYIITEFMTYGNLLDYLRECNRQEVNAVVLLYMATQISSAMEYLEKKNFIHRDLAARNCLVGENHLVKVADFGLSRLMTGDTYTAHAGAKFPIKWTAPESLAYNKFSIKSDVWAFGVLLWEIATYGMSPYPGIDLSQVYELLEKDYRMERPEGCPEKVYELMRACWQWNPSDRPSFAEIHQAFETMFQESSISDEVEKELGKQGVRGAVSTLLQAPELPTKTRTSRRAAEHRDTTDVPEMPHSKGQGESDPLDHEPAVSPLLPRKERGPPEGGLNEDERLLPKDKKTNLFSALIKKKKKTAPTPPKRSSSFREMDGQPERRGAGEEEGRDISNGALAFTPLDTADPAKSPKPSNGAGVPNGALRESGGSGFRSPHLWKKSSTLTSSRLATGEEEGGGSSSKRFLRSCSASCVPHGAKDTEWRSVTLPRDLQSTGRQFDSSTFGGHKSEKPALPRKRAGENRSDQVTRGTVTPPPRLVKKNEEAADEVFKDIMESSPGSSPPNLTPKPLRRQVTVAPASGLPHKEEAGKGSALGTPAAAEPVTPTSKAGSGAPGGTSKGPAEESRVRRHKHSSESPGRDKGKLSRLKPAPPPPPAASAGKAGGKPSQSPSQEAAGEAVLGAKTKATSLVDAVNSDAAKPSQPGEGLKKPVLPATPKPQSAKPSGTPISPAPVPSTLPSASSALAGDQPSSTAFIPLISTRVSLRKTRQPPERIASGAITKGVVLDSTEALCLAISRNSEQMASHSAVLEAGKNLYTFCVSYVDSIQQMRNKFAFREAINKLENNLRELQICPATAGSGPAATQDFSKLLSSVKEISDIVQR

[3] = molecular target: Activin receptor type-1 (Homo sapiens) (UniProt Q04771); test: ALK2(h) Millipore kinase panel; conditions: Compound concentration 1.0 uM
ATR/ATRIP (Homo sapiens) = ATR/ATRIP (Homo sapiens) (UniProt Q13535+Q8WXE1); test: ATR/ATRIP(h) Millipore kinase panel; assay type: protein-complex assay; conditions: Compound concentration 1.0 uM
[4] = molecular target: Serine/threonine-protein kinase BRSK1 (Homo sapiens) (UniProt Q8TDC3); test: BrSK1(h) Millipore kinase panel; conditions: Compound concentration 1.0 uM
[5] = molecular target: Calcium/calmodulin-dependent protein kinase type 1 (Homo sapiens) (UniProt Q14012); test: CaMKI(h) Millipore kinase panel; conditions: Compound concentration 1.0 uM
[6] = molecular target: Calcium/calmodulin-dependent protein kinase type 1B (Homo sapiens) (UniProt Q6P2M8); test: CaMKIbeta(h) Millipore kinase panel; conditions: Compound concentration 1.0 uM
[7] = molecular target: Casein kinase II subunit alpha' (Homo sapiens) (UniProt P19784); test: CK2alpha2(h) Millipore kinase panel; conditions: Compound concentration 1.0 uM
Sequence of Casein kinase II subunit alpha' (Homo sapiens) (P19784 whole entry, looked up): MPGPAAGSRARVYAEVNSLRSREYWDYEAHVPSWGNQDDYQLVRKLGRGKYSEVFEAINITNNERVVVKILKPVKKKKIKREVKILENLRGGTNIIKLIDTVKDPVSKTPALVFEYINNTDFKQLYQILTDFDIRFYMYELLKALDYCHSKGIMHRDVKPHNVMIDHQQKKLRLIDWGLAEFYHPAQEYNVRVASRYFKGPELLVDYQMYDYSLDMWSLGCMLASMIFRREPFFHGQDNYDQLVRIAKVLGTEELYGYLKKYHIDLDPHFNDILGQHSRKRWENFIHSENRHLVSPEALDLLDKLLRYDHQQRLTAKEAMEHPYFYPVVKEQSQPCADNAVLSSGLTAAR

[8] = molecular target: Death-associated protein kinase 1 (Homo sapiens) (UniProt P53355); test: DAPK1(h) Millipore kinase panel; conditions: Compound concentration 1.0 uM
[9] = molecular target: Serine/threonine-protein kinase 17A (Homo sapiens) (UniProt Q9UEE5); test: DRAK1(h) Millipore kinase panel; conditions: Compound concentration 1.0 uM
[10] = molecular target: Ephrin type-A receptor 2 (Homo sapiens) (UniProt P29317); test: EphA2(h) Millipore kinase panel; conditions: Compound concentration 1.0 uM
[11] = molecular target: Ephrin type-B receptor 2 (Homo sapiens) (UniProt P29323); test: EphB2(h) Millipore kinase panel; conditions: Compound concentration 1.0 uM
[12] = molecular target: Vascular endothelial growth factor receptor 1 (Homo sapiens) (UniProt P17948); test: Flt1(h) Millipore kinase panel; conditions: Compound concentration 1.0 uM
[13] = molecular target: Insulin receptor-related protein (Homo sapiens) (UniProt P14616); test: IRR(h) Millipore kinase panel; conditions: Compound concentration 1.0 uM
[14] = molecular target: Serine/threonine-protein kinase STK11 (Homo sapiens) (UniProt Q15831); test: LKB1(h) Millipore kinase panel; conditions: Compound concentration 1.0 uM
[15] = molecular target: MAP/microtubule affinity-regulating kinase 3 (Homo sapiens) (UniProt P27448); test: MARK3(h) Millipore kinase panel; conditions: Compound concentration 1.0 uM
[16] = molecular target: MAP/microtubule affinity-regulating kinase 4 (Homo sapiens) (UniProt Q96L34); test: MARK4(h) Millipore kinase panel; conditions: Compound concentration 1.0 uM
[17] = molecular target: Mitogen-activated protein kinase kinase kinase 11 (Homo sapiens) (UniProt Q16584); test: MLK3(h) Millipore kinase panel; conditions: Compound concentration 1.0 uM
[18] = molecular target: MAPK/MAK/MRK overlapping kinase (Homo sapiens) (UniProt Q9UQ07); test: MOK(h) Millipore kinase panel; conditions: Compound concentration 1.0 uM
[19] = molecular target: Serine/threonine-protein kinase MRCK gamma (Homo sapiens) (UniProt Q6DT37); test: MRCKgamma(h) Millipore kinase panel; conditions: Compound concentration 1.0 uM
[20] = molecular target: Serine/threonine-protein kinase 38 (Homo sapiens) (UniProt Q15208); test: NDR1(h) Millipore kinase panel; conditions: Compound concentration 1.0 uM
[21] = molecular target: Serine/threonine-protein kinase Nek2 (Homo sapiens) (UniProt P51955); test: NEK2(h) Millipore kinase panel; conditions: Compound concentration 1.0 uM
[22] = molecular target: Phosphatidylinositol 4-phosphate 3-kinase C2 domain-containing subunit alpha (Homo sapiens) (UniProt O00443); test: PI3KC2a(h) Millipore kinase panel; conditions: Compound concentration 1.0 uM
[23] = molecular target: Serine/threonine-protein kinase pim-2 (Homo sapiens) (UniProt Q9P1W9); test: Pim-2(h) Millipore kinase panel; conditions: Compound concentration 1.0 uM
Sequence of Serine/threonine-protein kinase pim-2 (Homo sapiens) (Q9P1W9 whole entry, looked up): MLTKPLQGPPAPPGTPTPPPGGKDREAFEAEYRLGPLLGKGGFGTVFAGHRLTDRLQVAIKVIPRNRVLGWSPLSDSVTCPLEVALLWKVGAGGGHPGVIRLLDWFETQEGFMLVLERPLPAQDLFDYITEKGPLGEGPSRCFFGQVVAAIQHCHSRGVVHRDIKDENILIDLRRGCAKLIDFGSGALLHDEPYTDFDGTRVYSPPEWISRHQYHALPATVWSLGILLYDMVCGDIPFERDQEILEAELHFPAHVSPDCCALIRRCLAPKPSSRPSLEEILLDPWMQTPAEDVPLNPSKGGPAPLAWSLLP

[24] = molecular target: Protein kinase C beta type (Homo sapiens) (UniProt P05771); test: PKCbetaII(h) Millipore kinase panel; conditions: Compound concentration 1.0 uM
[25] = molecular target: Mitogen-activated protein kinase 11 (Homo sapiens) (UniProt Q15759); test: SAPK2b(h) Millipore kinase panel; conditions: Compound concentration 1.0 uM
Sequence of Mitogen-activated protein kinase 11 (Homo sapiens) (Q15759 whole entry): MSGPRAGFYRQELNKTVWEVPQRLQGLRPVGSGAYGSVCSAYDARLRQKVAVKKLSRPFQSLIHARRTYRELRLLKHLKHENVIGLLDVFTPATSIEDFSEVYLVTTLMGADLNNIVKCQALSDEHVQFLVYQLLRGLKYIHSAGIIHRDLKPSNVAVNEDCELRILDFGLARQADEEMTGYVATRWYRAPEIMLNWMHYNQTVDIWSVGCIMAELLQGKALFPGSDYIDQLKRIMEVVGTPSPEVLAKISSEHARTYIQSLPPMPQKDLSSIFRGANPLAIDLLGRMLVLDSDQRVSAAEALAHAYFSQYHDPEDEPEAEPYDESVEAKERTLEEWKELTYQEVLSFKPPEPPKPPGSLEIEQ

[26] = molecular target: Serine/threonine-protein kinase Sgk1 (Homo sapiens) (UniProt O00141); test: SGK(h) Millipore kinase panel; conditions: Compound concentration 1.0 uM
Sequence of Serine/threonine-protein kinase Sgk1 (Homo sapiens) (O00141 whole entry): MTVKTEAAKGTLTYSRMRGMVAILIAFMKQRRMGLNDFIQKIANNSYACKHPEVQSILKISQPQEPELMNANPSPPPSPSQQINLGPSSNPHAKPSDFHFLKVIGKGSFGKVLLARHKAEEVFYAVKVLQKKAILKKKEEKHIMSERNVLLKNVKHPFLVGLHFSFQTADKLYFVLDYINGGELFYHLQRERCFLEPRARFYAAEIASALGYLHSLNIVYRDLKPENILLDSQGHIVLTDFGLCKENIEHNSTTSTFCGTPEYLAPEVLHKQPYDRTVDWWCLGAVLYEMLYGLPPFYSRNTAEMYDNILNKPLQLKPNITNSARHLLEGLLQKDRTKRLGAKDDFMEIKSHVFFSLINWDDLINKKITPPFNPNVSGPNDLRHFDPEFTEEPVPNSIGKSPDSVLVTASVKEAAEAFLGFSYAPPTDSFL

[27] = molecular target: Serine/threonine-protein kinase Sgk3 (Homo sapiens) (UniProt Q96BR1); test: SGK3(h) Millipore kinase panel; conditions: Compound concentration 1.0 uM
[28] = molecular target: Serine/threonine-protein kinase 33 (Homo sapiens) (UniProt Q9BYT3); test: STK33(h) Millipore kinase panel; conditions: Compound concentration 1.0 uM
[29] = molecular target: Serine/threonine-protein kinase tousled-like 1 (Homo sapiens) (UniProt Q9UKI8); test: TLK1(h) Millipore kinase panel; conditions: Compound concentration 1.0 uM
[30] = molecular target: Serine/threonine-protein kinase ULK2 (Homo sapiens) (UniProt Q8IYT8); test: ULK2(h) Millipore kinase panel; conditions: Compound concentration 1.0 uM
[31] = molecular target: PI3K p110 beta/p85 alpha (Homo sapiens) (UniProt P27986+P42338); test: PI3 Kinase (p110b/p85a)(h) Millipore kinase panel; assay type: protein-complex assay; conditions: Compound concentration 1.0 uM
[32] = molecular target: 5-hydroxytryptamine receptor 1D (Homo sapiens) (UniProt P28221); conditions: Compound concentration 10.0 uM
[33] = molecular target: Histamine H1 receptor (Homo sapiens) (UniProt P35367); conditions: Compound concentration 10.0 uM
Sequence of Histamine H1 receptor (Homo sapiens) (P35367 whole entry): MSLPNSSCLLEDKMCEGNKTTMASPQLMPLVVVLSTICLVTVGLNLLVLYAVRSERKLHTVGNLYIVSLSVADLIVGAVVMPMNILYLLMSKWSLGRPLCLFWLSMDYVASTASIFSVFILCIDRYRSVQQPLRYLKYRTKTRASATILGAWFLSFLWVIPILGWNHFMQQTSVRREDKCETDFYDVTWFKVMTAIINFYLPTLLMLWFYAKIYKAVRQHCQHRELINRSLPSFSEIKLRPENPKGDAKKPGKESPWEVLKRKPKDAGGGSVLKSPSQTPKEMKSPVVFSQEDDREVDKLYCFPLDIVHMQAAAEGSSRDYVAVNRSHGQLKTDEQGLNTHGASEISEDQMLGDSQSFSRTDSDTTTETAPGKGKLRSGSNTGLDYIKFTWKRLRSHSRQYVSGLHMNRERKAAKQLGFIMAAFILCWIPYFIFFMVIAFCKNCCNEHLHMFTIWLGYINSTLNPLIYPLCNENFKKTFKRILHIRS

[34] = molecular target: T1, Alpha-2C adrenergic receptor (Homo sapiens) (UniProt P18825); conditions: Compound concentration 10.0 uM
T1 sequence (whole entry): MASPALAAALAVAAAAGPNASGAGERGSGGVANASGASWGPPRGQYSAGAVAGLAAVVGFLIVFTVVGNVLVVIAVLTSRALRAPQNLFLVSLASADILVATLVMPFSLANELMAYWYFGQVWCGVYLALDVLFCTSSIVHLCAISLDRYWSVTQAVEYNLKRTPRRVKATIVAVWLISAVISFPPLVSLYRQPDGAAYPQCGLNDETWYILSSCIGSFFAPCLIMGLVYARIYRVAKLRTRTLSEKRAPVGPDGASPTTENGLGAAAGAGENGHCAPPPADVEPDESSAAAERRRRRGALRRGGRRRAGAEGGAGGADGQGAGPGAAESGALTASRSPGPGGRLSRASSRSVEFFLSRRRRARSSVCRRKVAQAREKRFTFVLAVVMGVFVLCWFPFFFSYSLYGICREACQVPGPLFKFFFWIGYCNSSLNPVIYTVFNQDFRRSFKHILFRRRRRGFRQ

[35] = molecular target: Estrogen receptor (Homo sapiens) (UniProt P03372); conditions: Compound concentration 10.0 uM
[36] = molecular target: Glutamate NMDA receptor (Rattus norvegicus) (UniProt P35439+Q00959+Q00960+Q00961+Q62645+Q8VHN2+Q9R1M7); conditions: Compound concentration 10.0 uM
[37] = molecular target: Acetylcholinesterase (Homo sapiens) (UniProt P22303); conditions: Compound concentration 10.0 uM
[38] = molecular target: Cannabinoid receptor 2 (Homo sapiens) (UniProt P34972); conditions: Compound concentration 10.0 uM
[39] = molecular target: Equilibrative nucleoside transporter 1/2/3/4 (Homo sapiens) (UniProt Q99808+Q7RTT9+Q14542+Q9BZD2); conditions: Compound concentration 10.0 uM
Sequence of Equilibrative nucleoside transporter 1/2/3/4 (Homo sapiens) (Q14542 whole entry, looked up): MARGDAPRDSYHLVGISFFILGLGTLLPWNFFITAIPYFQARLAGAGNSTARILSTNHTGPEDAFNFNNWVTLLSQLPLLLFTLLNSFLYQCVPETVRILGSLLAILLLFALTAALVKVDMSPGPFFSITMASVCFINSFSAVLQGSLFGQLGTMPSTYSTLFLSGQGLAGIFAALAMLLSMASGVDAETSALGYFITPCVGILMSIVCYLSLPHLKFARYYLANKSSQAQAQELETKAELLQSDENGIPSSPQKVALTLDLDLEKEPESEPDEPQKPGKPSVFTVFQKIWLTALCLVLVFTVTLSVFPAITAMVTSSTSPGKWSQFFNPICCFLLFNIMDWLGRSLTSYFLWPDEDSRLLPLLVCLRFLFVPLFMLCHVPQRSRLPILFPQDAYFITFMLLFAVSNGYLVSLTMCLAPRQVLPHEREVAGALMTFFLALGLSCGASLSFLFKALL
Sequence of Equilibrative nucleoside transporter 1/2/3/4 (Homo sapiens) (Q7RTT9 whole entry, looked up): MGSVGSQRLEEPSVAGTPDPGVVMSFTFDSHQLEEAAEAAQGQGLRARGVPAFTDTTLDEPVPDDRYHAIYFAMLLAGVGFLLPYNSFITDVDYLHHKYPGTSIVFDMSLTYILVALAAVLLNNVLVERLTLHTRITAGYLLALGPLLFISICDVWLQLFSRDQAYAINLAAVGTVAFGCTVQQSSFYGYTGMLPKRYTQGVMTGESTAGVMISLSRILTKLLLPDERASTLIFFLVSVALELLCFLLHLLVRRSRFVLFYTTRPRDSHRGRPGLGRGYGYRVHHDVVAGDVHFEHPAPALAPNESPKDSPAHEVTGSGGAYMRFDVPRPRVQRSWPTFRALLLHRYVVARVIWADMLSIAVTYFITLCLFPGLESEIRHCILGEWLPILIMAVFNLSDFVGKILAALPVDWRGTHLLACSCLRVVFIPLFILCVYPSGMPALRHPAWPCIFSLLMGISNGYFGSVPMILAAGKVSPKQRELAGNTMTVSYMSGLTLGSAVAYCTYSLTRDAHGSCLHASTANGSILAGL
Sequence of Equilibrative nucleoside transporter 1/2/3/4 (Homo sapiens) (Q99808 whole entry, looked up): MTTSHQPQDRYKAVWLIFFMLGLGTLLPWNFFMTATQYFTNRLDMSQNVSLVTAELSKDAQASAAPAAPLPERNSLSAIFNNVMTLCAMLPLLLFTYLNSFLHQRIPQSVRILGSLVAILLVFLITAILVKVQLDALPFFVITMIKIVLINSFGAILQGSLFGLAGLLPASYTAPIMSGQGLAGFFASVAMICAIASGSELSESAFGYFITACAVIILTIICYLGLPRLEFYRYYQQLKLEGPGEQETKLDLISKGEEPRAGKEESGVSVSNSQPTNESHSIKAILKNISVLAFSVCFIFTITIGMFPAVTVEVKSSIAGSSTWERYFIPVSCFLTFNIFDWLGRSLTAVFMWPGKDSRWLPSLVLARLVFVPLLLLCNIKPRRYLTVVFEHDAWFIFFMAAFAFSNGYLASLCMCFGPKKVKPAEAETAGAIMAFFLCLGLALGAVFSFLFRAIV
Sequence of Equilibrative nucleoside transporter 1/2/3/4 (Homo sapiens) (Q9BZD2 whole entry, looked up): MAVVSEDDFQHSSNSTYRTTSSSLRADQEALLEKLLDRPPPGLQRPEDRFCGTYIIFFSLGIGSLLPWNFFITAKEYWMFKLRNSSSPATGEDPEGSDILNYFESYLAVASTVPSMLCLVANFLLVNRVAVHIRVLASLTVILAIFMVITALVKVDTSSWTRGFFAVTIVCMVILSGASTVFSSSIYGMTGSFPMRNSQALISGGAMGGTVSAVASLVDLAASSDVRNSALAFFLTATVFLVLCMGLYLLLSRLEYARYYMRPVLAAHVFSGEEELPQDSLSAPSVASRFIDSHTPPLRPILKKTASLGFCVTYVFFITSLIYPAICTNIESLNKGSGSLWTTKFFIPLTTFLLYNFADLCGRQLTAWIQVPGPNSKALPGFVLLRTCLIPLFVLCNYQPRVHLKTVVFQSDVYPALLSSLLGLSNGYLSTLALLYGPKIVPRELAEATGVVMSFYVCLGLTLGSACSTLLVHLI

For CC[C@@H](Nc1c(C#N)c(-c2ccc(-c3cccc(C)c3F)cc2)nc2cnccc12)C(=O)O [BAY-091], the inhibition at 60 min, 10 µM [1] was 7% (not active), the inhibition [2] was 12.1% and the inhibition [3] was 5.14%. The inhibition (ATR/ATRIP (Homo sapiens)) was 16.2%, the inhibition [4] was -4.39% and the inhibition [5] was 7.33%. For the same compound, the inhibition [6] was -7.99%, the inhibition [7] was -4.36% and the inhibition [8] was -3.29%. For the same compound, the inhibition [9] was 9.65%, the inhibition [10] was -0.55% and the inhibition [11] was 1.4%. The inhibition [12] was 56.8%, the inhibition [13] was 6.25% and the inhibition [14] was 5.7%. For the same compound, the inhibition [15] was -4.67%, the inhibition [16] was 5.8% and the inhibition [17] was 21.1%. The inhibition [18] was 5.44%, the inhibition [19] was 5.46% and the inhibition [20] was -6%. For the same compound, the inhibition [21] was 15.9%, the inhibition [22] was 4.18% and the inhibition [23] was 6.42%. It also gave an inhibition [24] of -1.59%, an inhibition [25] of -2.08% and an inhibition [26] of -6.56%. It also gave an inhibition [27] of 6.09%, an inhibition [28] of 2.82% and an inhibition [29] of -0.87%. The inhibition [30] was 5.46%, the inhibition [31] was 0.43% and the inhibition [32] was 21.2%. For the same compound, the inhibition [33] was 12.3%, the inhibition [34] was -6.87% and the inhibition [35] was 10%. For the same compound, the inhibition [36] was -3%, the inhibition [37] was 27% and the inhibition [38] was 1%. It also gave an inhibition [39] of 42%.
